Results published in article PMC8427694, “The Herbal Compound Thymol Targets Multiple Salmonella Typhimurium Virulence Factors for Lon Protease Degradation” (Frontiers in Pharmacology, 2021).

Legend:
Type in all cases: cell-based
GST-SipA497-669 [1] = biological target: T1, GST-SipA497-669 (Salmonella enterica, UniProt E1WAC6); experiment: circular dichroism of purified protein from thymol-exposed cells; settings: thymol present in E. coli culture during expression; protein 7.3 uM in PBS, 25 °C
T1 construct: gene sipA; residues 497-669 (actin nucleation domain), N-terminal GST (pGEX-6p-1) kept, expressed in E. coli BL21(DE3), glutathione-Sepharose purified

GST-SipA27-270 [2] = biological target: T2, GST-SipA27-270 (Salmonella enterica, UniProt E1WAC6); experiment: as above; settings: thymol present in E. coli culture during expression; protein 7.9 uM in PBS, 25 °C
T2 construct: gene sipA

GST-SipA27-270 [3] = biological target: T2, GST-SipA27-270; experiment: click chemistry labelling, in-gel fluorescence; settings: covalent (suggested; survives SDS and 100 °C); labelled compound; compound added to E. coli culture during expression, 20 °C, 16 h; possibly a cellular derivative binds
GST-SipA497-669 [4] = biological target: T1, GST-SipA497-669; experiment: click chemistry labelling, in-gel fluorescence; settings: covalent (suggested; survives SDS and 100 °C); labelled compound; compound added to E. coli culture during expression, 20 °C, 16 h; possibly a cellular derivative binds

T1 sequence (E1WAC6 497-669 limits assumed): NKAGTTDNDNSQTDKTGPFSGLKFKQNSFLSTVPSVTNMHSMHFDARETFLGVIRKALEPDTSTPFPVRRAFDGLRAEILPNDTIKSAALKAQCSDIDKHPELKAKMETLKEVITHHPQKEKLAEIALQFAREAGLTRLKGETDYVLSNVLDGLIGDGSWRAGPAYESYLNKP
T2 sequence (E1WAC6 27-270): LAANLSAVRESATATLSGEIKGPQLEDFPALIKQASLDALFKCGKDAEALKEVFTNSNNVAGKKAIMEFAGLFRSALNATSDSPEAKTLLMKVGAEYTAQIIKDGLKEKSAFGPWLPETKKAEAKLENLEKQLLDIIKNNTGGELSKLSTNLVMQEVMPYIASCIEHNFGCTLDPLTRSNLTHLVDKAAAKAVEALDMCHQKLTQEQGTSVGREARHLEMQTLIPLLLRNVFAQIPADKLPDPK

Compound | circular dichroism of purified protein from thymol-exposed cells (GST-SipA497-669 [1]) | circular dichroism of purified protein from thymol-exposed cells (GST-SipA27-270 [2]) | click chemistry labelling, in-gel fluorescence (GST-SipA27-270 [3]) | click chemistry labelling, in-gel fluorescence (GST-SipA497-669 [4])
Cc1ccc(C(C)C)c(O)c1 [thymol] | proteins purified from cells treated with thymol exhibited significant changes in their CD spectra | proteins purified from cells treated with thymol exhibited significant changes in their CD spectra | – | –
C#CCOc1cc(C)ccc1C(C)C [alkyne-thymol] | – | – | Fluorescence signals were detected only in samples receiving alkyne-thymol | Fluorescence signals were detected only in samples receiving alkyne-thymol
